# Assay results published in ChEMBL document CHEMBL3885861, “Open TG-GATES”.
# Organism: Rattus norvegicus
# Experiment: Open TG-GATES - Regimen: Single
# Type: toxicity, organism-based, Sprague-Dawley
# Parameters: regimen Single, gender Male, age 6 weeks
# Settings: in vivo, po, 300 mg/kg, route gavage, dose level High; for APTT / Bas / Eos / Fbg / Hb / Ht / Lym / MCH / MCHC / MCV / Mono / Neu / PT / Plat / RBC / Ret / WBC: tissue Blood; for KIDNEY_L / KIDNEY_R / KIDNEY_TOTAL: tissue Kidney; for LIVER: tissue Liver; for A/G / ALP / ALT / AST / BUN / CRE / Ca / Cl / DBIL / GLC / IP / K / LDH / Na / PL / RALB / TBIL / TC / TG / TP / gamma-GTP: tissue Plasma
smiles,measurement,setting,value
CCOC(=O)C(C)(C)Oc1ccc(Cl)cc1 [CLOFIBRATE],TERMINAL_BW,3 h,225.9 g
same,APTT,3 h,19.5 s
same,Bas,3 h,0%
same,Eos,3 h,1%
same,Fbg,3 h,231.2 mg/dL
same,Hb,3 h,13.5 g/dL
same,Ht,3 h,39.3%
same,Lym,3 h,78%
same,MCH,3 h,21.4 pg
same,MCHC,3 h,34.2%
same,MCV,3 h,62.5 fL
same,Mono,3 h,3%
same,Neu,3 h,17.2%
same,PT,3 h,12.5 s
same,Plat,3 h,127.2 x10_4/uL
same,RBC,3 h,629.6 x10_4/ul
same,Ret,3 h,7.9%
same,WBC,3 h,103.9 x10_2/uL
same,KIDNEY_L,3 h,1 g
same,KIDNEY_R,3 h,1 g
same,KIDNEY_TOTAL,3 h,2 g
same,LIVER,3 h,9.8 g
same,A/G,3 h,1.6
same,ALP,3 h,991.6 IU/L
same,ALT,3 h,41.8 IU/L
same,AST,3 h,73.2 IU/L
same,BUN,3 h,10.4 mg/dL
same,CRE,3 h,0.4 mg/dL
same,Ca,3 h,11 mg/dL
same,Cl,3 h,102.4 meq/L
same,DBIL,3 h,0.1 mg/dL
same,GLC,3 h,190 mg/dL
same,IP,3 h,9.4 mg/dL
same,K,3 h,3.6 meq/L
same,LDH,3 h,260.6 IU/L
same,Na,3 h,140.4 meq/L
same,PL,3 h,149.6 mg/dL
same,RALB,3 h,3.5 g/dL
same,TBIL,3 h,0.2 mg/dL
same,TC,3 h,73 mg/dL
same,TG,3 h,76.2 mg/dL
same,TP,3 h,5.6 g/dL
same,gamma-GTP,3 h,0.6 IU/L
same,TERMINAL_BW,6 h,227.7 g
same,APTT,6 h,18.2 s
same,Bas,6 h,0%
same,Eos,6 h,1%
same,Fbg,6 h,240.8 mg/dL
same,Hb,6 h,13.4 g/dL
same,Ht,6 h,38.8%
same,Lym,6 h,76.4%
same,MCH,6 h,21.1 pg
same,MCHC,6 h,34.5%
same,MCV,6 h,61.3 fL
same,Mono,6 h,3.2%
same,Neu,6 h,18.4%
same,PT,6 h,12.7 s
same,Plat,6 h,134.1 x10_4/uL
same,RBC,6 h,633.8 x10_4/ul
same,Ret,6 h,7.4%
same,WBC,6 h,83.7 x10_2/uL
same,KIDNEY_L,6 h,1 g
same,KIDNEY_R,6 h,1 g
same,KIDNEY_TOTAL,6 h,2 g
same,LIVER,6 h,9.5 g
same,A/G,6 h,1.6
same,ALP,6 h,1008 IU/L
same,ALT,6 h,35.8 IU/L
same,AST,6 h,74.4 IU/L
same,BUN,6 h,10.2 mg/dL
same,CRE,6 h,0.4 mg/dL
same,Ca,6 h,10.9 mg/dL
same,Cl,6 h,102.8 meq/L
same,DBIL,6 h,0.09 mg/dL
same,GLC,6 h,195.6 mg/dL
same,IP,6 h,9.5 mg/dL
same,K,6 h,4 meq/L
same,LDH,6 h,218.8 IU/L
same,Na,6 h,140.4 meq/L
same,PL,6 h,135 mg/dL
same,RALB,6 h,3.5 g/dL
same,TBIL,6 h,0.2 mg/dL
same,TC,6 h,71 mg/dL
same,TG,6 h,96.2 mg/dL
same,TP,6 h,5.7 g/dL
same,gamma-GTP,6 h,1.2 IU/L
same,TERMINAL_BW,9 h,229.4 g
same,APTT,9 h,18 s
same,Bas,9 h,0%
same,Eos,9 h,1%
same,Fbg,9 h,235.6 mg/dL
same,Hb,9 h,13.1 g/dL
same,Ht,9 h,38.1%
same,Lym,9 h,72.8%
same,MCH,9 h,21 pg
same,MCHC,9 h,34.5%
same,MCV,9 h,61 fL
same,Mono,9 h,2.8%
same,Neu,9 h,22.8%
same,PT,9 h,12.9 s
same,Plat,9 h,140.4 x10_4/uL
same,RBC,9 h,625.6 x10_4/ul
same,Ret,9 h,7.1%
same,WBC,9 h,69.9 x10_2/uL
same,KIDNEY_L,9 h,1 g
same,KIDNEY_R,9 h,1 g
same,KIDNEY_TOTAL,9 h,2 g
same,LIVER,9 h,9.4 g
same,A/G,9 h,1.5
same,ALP,9 h,1054.2 IU/L
same,ALT,9 h,33 IU/L
same,AST,9 h,70.4 IU/L
same,BUN,9 h,10.8 mg/dL
same,CRE,9 h,0.4 mg/dL
same,Ca,9 h,10.5 mg/dL
same,Cl,9 h,102.4 meq/L
same,DBIL,9 h,0.09 mg/dL
same,GLC,9 h,201 mg/dL
same,IP,9 h,10.3 mg/dL
same,K,9 h,3.7 meq/L
same,LDH,9 h,203.6 IU/L
same,Na,9 h,140.4 meq/L
same,PL,9 h,116 mg/dL
same,RALB,9 h,3.3 g/dL
same,TBIL,9 h,0.1 mg/dL
same,TC,9 h,53.8 mg/dL
same,TG,9 h,81.8 mg/dL
same,TP,9 h,5.5 g/dL
same,gamma-GTP,9 h,1 IU/L
same,TERMINAL_BW,24 h,236.8 g
same,APTT,24 h,19.3 s
same,Bas,24 h,0%
same,Eos,24 h,0.8%
same,Fbg,24 h,218.2 mg/dL
same,Hb,24 h,13.5 g/dL
same,Ht,24 h,38.6%
same,Lym,24 h,77.2%
same,MCH,24 h,21.2 pg
same,MCHC,24 h,34.9%
same,MCV,24 h,60.7 fL
same,Mono,24 h,4%
same,Neu,24 h,17.6%
same,PT,24 h,13.3 s
same,Plat,24 h,127.2 x10_4/uL
same,RBC,24 h,636.8 x10_4/ul
same,Ret,24 h,6.4%
same,WBC,24 h,102.9 x10_2/uL
same,KIDNEY_L,24 h,1 g
same,KIDNEY_R,24 h,1.1 g
same,KIDNEY_TOTAL,24 h,2.1 g
same,LIVER,24 h,12.3 g
same,A/G,24 h,1.7
same,ALP,24 h,1007.8 IU/L
same,ALT,24 h,38 IU/L
same,AST,24 h,79 IU/L
same,BUN,24 h,15.4 mg/dL
same,CRE,24 h,0.4 mg/dL
same,Ca,24 h,10.6 mg/dL
same,Cl,24 h,100.4 meq/L
same,DBIL,24 h,0.086 mg/dL
same,GLC,24 h,201.2 mg/dL
same,IP,24 h,7.5 mg/dL
same,K,24 h,3.8 meq/L
same,LDH,24 h,223.4 IU/L
same,Na,24 h,140 meq/L
same,PL,24 h,104.8 mg/dL
same,RALB,24 h,3.5 g/dL
same,TBIL,24 h,0.1 mg/dL
same,TC,24 h,43.6 mg/dL
same,TG,24 h,103.8 mg/dL
same,TP,24 h,5.5 g/dL
same,gamma-GTP,24 h,1.4 IU/L
